Assay results reported in PubChem BioAssay AID328 (DTP/NCI, 2004).
Toxic doses and inconclusive results are not listed. How the source made its calls: active means survival T/C of 150% or more; inactive means T/C below 125% in these data.

Tested on: BDF1 mice, P388 leukemia ip, median survival T/C
Assay: NCI In Vivo Anticancer Drug Screen. Data for tumor model P388 Leukemia (intraperitoneal) in B6D2F1 (BDF1) mice
Details: endpoint: median survival time, higher = longer survival
Summary of the method: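 Reported as T/C, where T is the survival measurement in dosed animals and C the same measurement in vehicle controls.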

Measured: T/C

CCc1nc(N)nc(N)c1-c1ccc(Cl)cc1
inactive: dose: 2.0 mg/kg/injection, schedule: Q03HX008 (ip), vehicle: Klucel (hydroxypropylcellulose) (HPC) 100 % of control | dose: 2.0 mg/kg/injection, schedule: Q03HX016 (ip), vehicle: Klucel (hydroxypropylcellulose) (HPC) 91 % of control | dose: 2.0 mg/kg/injection, schedule: Q03HX024 (ip), vehicle: Klucel (hydroxypropylcellulose) (HPC) 91 % of control | dose: 4.0 mg/kg/injection, schedule: Q01DX009 (ip), vehicle: Klucel (hydroxypropylcellulose) (HPC) 95 % of control | dose: 4.0 mg/kg/injection, schedule: Q01DX009 (sc), vehicle: Klucel (hydroxypropylcellulose) (HPC) 100 % of control | dose: 4.0 mg/kg/injection, schedule: Q03HX008 (ip), vehicle: Klucel (hydroxypropylcellulose) (HPC) 95 % of control | dose: 4.0 mg/kg/injection, schedule: Q03HX016 (ip), vehicle: Klucel (hydroxypropylcellulose) (HPC) 100 % of control | dose: 4.0 mg/kg/injection, schedule: Q03HX024 (ip), vehicle: Klucel (hydroxypropylcellulose) (HPC) 91 % of control | dose: 8.0 mg/kg/injection, schedule: Q01DX009 (ip), vehicle: Klucel (hydroxypropylcellulose) (HPC) 91 % of control | dose: 8.0 mg/kg/injection, schedule: Q01DX009 (sc), vehicle: Klucel (hydroxypropylcellulose) (HPC) 100 % of control | dose: 8.0 mg/kg/injection, schedule: Q01DX010 (ip), vehicle: saline 100 % of control | dose: 8.0 mg/kg/injection, schedule: Q03HX008 (ip), vehicle: Klucel (hydroxypropylcellulose) (HPC) 100 % of control | dose: 8.0 mg/kg/injection, schedule: Q03HX016 (ip), vehicle: Klucel (hydroxypropylcellulose) (HPC) 91 % of control | dose: 8.0 mg/kg/injection, schedule: Q03HX024 (ip), vehicle: Klucel (hydroxypropylcellulose) (HPC) 95 % of control | dose: 16.0 mg/kg/injection, schedule: Q01DX001 (ip), vehicle: Klucel (hydroxypropylcellulose) (HPC) 100 % of control | dose: 16.0 mg/kg/injection, schedule: Q01DX001 (oral), vehicle: Klucel (hydroxypropylcellulose) (HPC) 100 % of control | dose: 16.0 mg/kg/injection, schedule: Q01DX001 (sc), vehicle: Klucel (hydroxypropylcellulose) (HPC) 100 % of control | dose: 16.0 mg/kg/injection, schedule: Q01DX009 (ip), vehicle: Klucel (hydroxypropylcellulose) (HPC) 91 % of control | dose: 16.0 mg/kg/injection, schedule: Q01DX009 (oral), vehicle: Klucel (hydroxypropylcellulose) (HPC) 104 % of control | dose: 16.0 mg/kg/injection, schedule: Q01DX009 (sc), vehicle: Klucel (hydroxypropylcellulose) (HPC) 100 % of control | dose: 16.0 mg/kg/injection, schedule: Q01DX010 (ip), vehicle: saline 95 % of control | dose: 16.0 mg/kg/injection, schedule: Q03HX008 (ip), vehicle: Klucel (hydroxypropylcellulose) (HPC) 91 % of control | dose: 16.0 mg/kg/injection, schedule: Q03HX016 (ip), vehicle: Klucel (hydroxypropylcellulose) (HPC) 100 % of control | dose: 16.0 mg/kg/injection, schedule: Q03HX024 (ip), vehicle: Klucel (hydroxypropylcellulose) (HPC) 100 % of control | dose: 16.0 mg/kg/injection, schedule: Q04DX003 (ip), vehicle: Klucel (hydroxypropylcellulose) (HPC) 100 % of control | dose: 16.0 mg/kg/injection, schedule: Q08DX002 (ip), vehicle: Klucel (hydroxypropylcellulose) (HPC) 100 % of control | dose: 32.0 mg/kg/injection, schedule: Q01DX001 (ip), vehicle: Klucel (hydroxypropylcellulose) (HPC) 100 % of control | dose: 32.0 mg/kg/injection, schedule: Q01DX001 (oral), vehicle: Klucel (hydroxypropylcellulose) (HPC) 90 % of control | dose: 32.0 mg/kg/injection, schedule: Q01DX001 (sc), vehicle: Klucel (hydroxypropylcellulose) (HPC) 104 % of control | dose: 32.0 mg/kg/injection, schedule: Q01DX009 (ip), vehicle: Klucel (hydroxypropylcellulose) (HPC) 95 % of control | dose: 32.0 mg/kg/injection, schedule: Q01DX009 (sc), vehicle: Klucel (hydroxypropylcellulose) (HPC) 100 % of control | dose: 32.0 mg/kg/injection, schedule: Q01DX010 (ip), vehicle: saline 90 % of control | dose: 32.0 mg/kg/injection, schedule: Q04DX003 (ip), vehicle: Klucel (hydroxypropylcellulose) (HPC) 100 % of control | dose: 32.0 mg/kg/injection, schedule: Q08DX002 (ip), vehicle: Klucel (hydroxypropylcellulose) (HPC) 95 % of control | dose: 64.0 mg/kg/injection, schedule: Q01DX001 (ip), vehicle: Klucel (hydroxypropylcellulose) (HPC) 100 % of control | dose: 64.0 mg/kg/injection, schedule: Q01DX001 (oral), vehicle: Klucel (hydroxypropylcellulose) (HPC) 104 % of control | dose: 64.0 mg/kg/injection, schedule: Q01DX001 (sc), vehicle: Klucel (hydroxypropylcellulose) (HPC) 109 % of control | dose: 64.0 mg/kg/injection, schedule: Q01DX009 (ip), vehicle: Klucel (hydroxypropylcellulose) (HPC) 116 % of control | dose: 64.0 mg/kg/injection, schedule: Q01DX009 (sc), vehicle: Klucel (hydroxypropylcellulose) (HPC) 113 % of control | dose: 64.0 mg/kg/injection, schedule: Q01DX010 (ip), vehicle: saline 90 % of control | dose: 64.0 mg/kg/injection, schedule: Q04DX003 (ip), vehicle: Klucel (hydroxypropylcellulose) (HPC) 100 % of control | dose: 64.0 mg/kg/injection, schedule: Q08DX002 (ip), vehicle: Klucel (hydroxypropylcellulose) (HPC) 91 % of control | dose: 128.0 mg/kg/injection, schedule: Q01DX001 (ip), vehicle: Klucel (hydroxypropylcellulose) (HPC) 100 % of control | dose: 128.0 mg/kg/injection, schedule: Q01DX001 (oral), vehicle: Klucel (hydroxypropylcellulose) (HPC) 100 % of control | dose: 128.0 mg/kg/injection, schedule: Q01DX001 (sc), vehicle: Klucel (hydroxypropylcellulose) (HPC) 100 % of control | dose: 128.0 mg/kg/injection, schedule: Q04DX003 (ip), vehicle: Klucel (hydroxypropylcellulose) (HPC) 100 % of control | dose: 128.0 mg/kg/injection, schedule: Q08DX002 (ip), vehicle: Klucel (hydroxypropylcellulose) (HPC) 100 % of control
